The values below come from PubChem BioAssay (NCI).

Molecules are shown by their SMILES.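 Compound exposure: 48 hours, 5 concentrations, 96-well plates. TGI marks complete inhibition of growth.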

What all share (assay): NCI-60 cell line screen, 48 h
Assay [1] relates to DMS 114 small cell lung.
Assay [2] concerns LOX IMVI melanoma.
Assay [3] deals with KM20L2 colon.
The test system of assay [4] is DLD-1 colon.
Assay [5] relates to M19-MEL melanoma.
For assay [6], the system named is SNB-78 CNS.
In assay [7] the test system is DMS 273 small cell lung.
For assay [8], the system named is SK-MEL-5 melanoma.
The subject of assay [9] is HOP-18 NSCLC.
In assay [10] the test system is SK-OV-3 ovarian.
Assay [11] has as its system LXFL 529 NSCLC.
In assay [12] the test system is HT29 colon.
The subject of assay [13] is 786-0 renal.
The test system of assay [14] is HOP-92 NSCLC.
Assay [15] concerns COLO 205 colon.
The subject of assay [16] is MCF7 breast.
In assay [17] the test system is XF 498 CNS.

As for `O=C1O/C(=C(\Br)c2cccc3ccccc23)c2ccccc21`, the TGI in assay [1] was over 48.4 µM; in [2], over 100 µM; in assay [3], over 59.5 µM; in assay [4], over 66.7 µM; in assay [5] it was over 58.5 µM; in assay [6], over 100 µM. For the same compound, the TGI in assay [7] is over 54.9 µM; in assay [8] it was 51.1 µM; in assay [9], 36.4 µM; in [10] it was over 55.8 µM; in assay [11], over 62.7 µM; in [12] it was 56.3 µM. The TGI in assay [13] was 31.4 µM; in assay [14], over 56.9 µM; in [15], over 53.8 µM.

`CC1(C)N=C(C(N)=O)c2ncn(CCO)c2N1`: the TGI in assay [2], in assay [8], in assay [10], in [16], in assay [12] and in assay [13] was over 100 µM throughout. Moreover, the TGI in assay [14] and in [15] was over 100 µM throughout.

`COC(=O)c1cc(NC(=O)c2cc(NC(=O)c3cc([N+](=O)[O-])cn3C)cn2C)cn1C`: the TGI was over 100 µM in assay [2]; 91.9 µM in [8]; over 100 µM in assay [10]; over 100 µM in assay [16]; over 100 µM in assay [12]; over 100 µM in assay [13]. The TGI in [14] is 95.7 µM; in assay [15] it was over 100 µM.

`Clc1cc2c(c(CSC3=NCN(CC4CC4)CN3)c1)OCOC2`: the TGI was over 100 µM in [2]; 32.2 µM in assay [8]; 67.1 µM in assay [10]; 93.8 µM in assay [16]; 63.1 µM in [12]; 52.2 µM in assay [13]. Besides, the TGI is over 100 µM in assay [14] and 28.4 µM in assay [15].

As for `O=C(NCCC(F)(F)C(F)(F)C(F)(F)C(F)(F)F)NC1OC(CO)C(O)C(O)C1O` (stereo unspecified), the TGI in [2], in assay [8], in [10], in assay [16], in [12] and in [13] was over 100 µM throughout. Also, the TGI in assay [14] and in [15] was over 100 µM each time.

Turning to `COc1cc(OC)c2c(O)c3c(cc2c1)CC(C)(C)CC3=O`, the TGI in assay [2], in assay [8], in [10], in assay [16], in assay [12] and in assay [13] was over 100 µM each time. For the same compound, the TGI in assay [14] and in [15] was over 100 µM throughout.

Take `Cc1ccc(OCC2OC(n3cnc4c(N(C)C)nc(Br)nc43)CC2Oc2ccc(C)cc2)cc1` (stereo unspecified): the TGI in [2], in assay [8], in [10], in assay [16], in [12] and in assay [13] was over 100 µM throughout. In addition, the TGI in assay [14] and in assay [15] was over 100 µM each time.

On to `O=C(Nc1nc2c(=O)[nH]cnc2s1)c1ccccc1`, for which the TGI in assay [2], in assay [8], in assay [10], in [16], in assay [12] and in assay [13] was over 100 µM throughout. Also, the TGI in [14] and in [15] was over 100 µM in each case.

Turning to `CC(C)[C@@H]1CC[C@@H](C)C[C@H]1OC(=O)/C=C1/C2C=CC(O2)C1C(=O)O[C@@H]1C[C@H](C)CC[C@H]1C(C)C` (stereo partly specified), the TGI in [2], in assay [8], in assay [10], in assay [16], in [12] and in assay [13] was over 100 µM throughout. Moreover, the TGI in assay [14] and in assay [15] was over 100 µM each time.

As to `COC(=O)C1=C(C)NC2(O)C=CC(=O)C3C(=O)N(c4ccccc4)C(=O)C132` (stereo unspecified), the TGI in assay [2] is over 100 µM; in [8], over 100 µM; in assay [10] it was over 100 µM; in assay [16], over 100 µM; in assay [12] it was 70.3 µM; in assay [13] it was over 100 µM. In addition, the TGI in [14] and in assay [15] was over 100 µM in each case.

Turning to `c1ccc(C2=Nc3nc4ccccc4n3C(c3ccccc3)C2)cc1` (stereo unspecified), the TGI in assay [2], in assay [8], in assay [10], in assay [16], in assay [12] and in assay [13] was over 100 µM throughout. Moreover, the TGI in assay [14] and in assay [15] was over 100 µM throughout.

With `O=C(CN1CCN(Cc2ccccc2)CC1)N1CCCn2c1nc1ccccc1c2=O`, the TGI in assay [2], in [8], in assay [10], in [16], in [12] and in assay [13] was over 100 µM each time. Moreover, the TGI in [14] is 52.5 µM; in assay [15], over 100 µM.

Regarding `CCCCCC(=O)c1ccc2[nH]c3c(C)cc([N+](=O)[O-])c(C)c3c2c1`, the TGI in assay [1], in assay [2], in assay [17], in [5], in assay [6] and in assay [7] was over 100 µM throughout. Moreover, the TGI in [8], in [12], in [13] and in assay [15] was over 100 µM in each case.

Turning to `CCOC(=O)N1CCN(c2ccc3c(C)cc(C)nc3n2)CC1`, the TGI in assay [2], in [8], in assay [10], in [16], in assay [12] and in assay [13] was over 100 µM each time. Besides, the TGI in assay [14] and in assay [15] was over 100 µM each time.

Turning to `C=CC1ON(Cc2ccccc2)CCc2cc(OC)c(OC)cc21` (stereo unspecified), the TGI was over 100 µM in [2]; 31.6 µM in [8]; over 100 µM in [10]; over 100 µM in [16]; over 100 µM in [12]; over 100 µM in assay [13]. In addition, the TGI in [14] and in assay [15] was over 100 µM throughout.

As to `C=C1C(=O)OC2(C)C3CCC(C3)C12` (stereo unspecified), the TGI in assay [1] is over 100 µM; in assay [2], over 100 µM; in [3], over 100 µM; in [17] it was 97.9 µM; in [4], over 100 µM; in assay [5], over 100 µM. Moreover, the TGI in assay [6], in assay [7], in assay [8], in assay [9], in assay [10] and in assay [12] was over 100 µM each time. For the same compound, the TGI in assay [13] was over 100 µM; in assay [14], 87.4 µM; in [15] it was 48.4 µM.

With `C=CCOc1ccccc1N=N/C(C#N)=N\Nc1ccccc1OCC=C`, the TGI in assay [2], in assay [8], in assay [10], in assay [16], in [12] and in [13] was over 100 µM each time. The TGI in assay [14] and in assay [15] was over 100 µM throughout.

As to `O=C1CSc2nc3ccccc3n2/C=N\N1`, the TGI in [2], in [8], in assay [10], in [16], in assay [12] and in assay [13] was over 100 µM each time. The TGI in assay [14] and in [15] was over 100 µM in each case.

On to `ClC(Cl)(Cl)C1=N[C@H]2[C@H](Br)[C@@H]3O[C@@H](c4ccccc4)[C@H](c4ccccc4)O[C@@H]3[C@H]2O1`, for which the TGI in assay [2] amounted to 33.3 µM; in assay [8], 31.2 µM; in assay [10], 40.5 µM; in assay [16] it was 32.6 µM; in assay [12], 58.1 µM; in [13], 39.6 µM. Further, the TGI in assay [14] is 31.5 µM; in assay [15], 30 µM.

With `CC(=O)N1CCc2c([nH]c3ccc(Br)cc23)C1c1ccccc1` (stereo unspecified), the TGI in [2], in assay [8], in [10], in [16], in [12] and in [13] was over 10 µM each time. Moreover, the TGI in [14] and in assay [15] was over 10 µM throughout.

Take `O=C(/C=C/c1ccsc1)c1ccco1`: the TGI in assay [2] was 14.5 µM; in [8] it was 29.7 µM; in [10], 42.3 µM; in assay [16] it was 6.32 µM; in assay [12], 22.8 µM; in assay [13] it was 24.4 µM. Moreover, the results for the TGI in [14] and in assay [15] were 30.6 µM and 32.8 µM, respectively.

For the compound `NC(=Nc1ccc(O)cc1)S(=O)(=O)O`, the TGI in assay [2], in [8], in assay [10], in [16], in assay [12] and in [13] was over 100 µM each time. Moreover, the TGI in [14] and in [15] was over 100 µM in each case.

On to `O=C(Nc1cccc(C(F)(F)F)c1)O/N=C(/Cl)CCl`, for which the TGI is 69.9 µM in assay [2]; over 100 µM in [8]; over 100 µM in [10]; over 100 µM in assay [16]; over 100 µM in assay [12]; over 100 µM in [13]. Moreover, the TGI in [14] was 59.2 µM; in assay [15] it was over 100 µM.

As for `Cc1nc2c(n1C(C)(C)C)C(=O)c1ccccc1C2=O`, the TGI in [2] is over 100 µM; in assay [3], over 100 µM; in [17], over 100 µM; in [4], over 100 µM; in [5], 76.5 µM; in assay [6], over 100 µM. The TGI in assay [7], in assay [8], in assay [10], in assay [11], in assay [12] and in assay [13] was over 100 µM each time. Further, the TGI in assay [14] is 66.4 µM; in [15] it was over 100 µM.

`CC(C(=O)ON1C(=O)CCC1=O)c1ccc(C(=O)c2ccccc2)s1` (stereo unspecified): the TGI in assay [2], in [8], in assay [10], in assay [16], in [12] and in assay [13] was over 100 µM in each case. Besides, the TGI in assay [14] and in assay [15] was over 100 µM throughout.

With `O=C1C(F)=CC(COC(c2ccccc2)(c2ccccc2)c2ccccc2)OC1n1cc(F)c(=O)[nH]c1=O` (stereo unspecified), the TGI in [2] stood at 3.54 µM; in assay [8], 3.22 µM; in assay [10], 14.4 µM; in assay [16] it was 4.96 µM; in assay [12], 1.59 µM; in assay [13] it was 3.92 µM. The TGI in assay [14] is 5.52 µM; in [15], over 21.5 µM.

`CN(C)c1nc(NC23CC4CC(CC(C4)C2)C3)nc(N(C)C)n1`: the TGI was 17.8 µM in assay [2]; 24.8 µM in assay [8]; over 100 µM in assay [10]; over 63.3 µM in assay [16]; over 100 µM in [12]; over 89.5 µM in [13]. Also, the TGI in assay [14] was 82.2 µM; in [15], over 49.6 µM.

As to `COc1cc(C2SCC(=O)N2c2ccc(-n3c(-c4ccccc4)nc4ccccc4c3=O)cc2)ccc1O` (stereo unspecified), the TGI in assay [2], in assay [8], in assay [10], in assay [16], in [12] and in [13] was over 100 µM in each case. Further, the TGI in [14] is 68.9 µM; in assay [15] it was over 100 µM.
